According to patent US20260130933A1, “PHARMACEUTICAL COMPOSITION FOR PREVENTION OR TREATMENT OF NEPHROPATHY AND/OR DIABETES MELLITUS, COMPRISING ENAVOGLIFLOZIN” (DAEWOONG PHARMACEUTICAL CO., LTD., priority 2022, published 2026):

Assay: Example 3: phase 3 trial, enavogliflozin 0.3 mg vs dapagliflozin 10 mg once a day for 24 weeks added to metformin and gemigliptin in patients with type 2 diabetes (same endpoints, rescue drug)
Assay type: in vivo, human
Details: week 12
Method: 1) when Metformin (≥1,000 mg/Day) was Administered at a Constant Dose for at Least 8 Weeks Prior to Pre-Visit (Pre-Screening) • Metformin (≥1,000 mg/day) and gemigliptin (50 mg/day) were co-administered during the 8-week stabilization period. […] 4) when Metformin (≥1,000 mg/Day) and Gemigliptin (50 mg/Day) were Co-Administered at Constant Doses for at Least 8 Weeks Prior to Pre-Visit (Prescreening) • Without a separate stabilization period, Pre-visit (pre-screening) was Visit 1 (screening).
Subjects who met the inclusion/exclusion criteria continued to receive metformin and gemigliptin while receiving a placebo of the clinical trial drug in a single-blind (subject-blinded) state for a 2-week run-in period.
Here, the randomized subjects were stratified according to the administration therapy (co-administration with two or less agents (one or two agents) or three or more agents) of a conventional hypoglycemic agent (before washout of another hypoglycemic agent) within 24 weeks prior to obtaining written informed consent and by an HbA1c value (<8% or ≥8%) at Visit 1 (screening) measured in the central laboratory.
The randomized subjects were administered two tablets of the clinical trial drug corresponding to each administration group once a day, and then visited the institution at weeks 6, 12, 18, and 24 during the 24-week administration period to conduct efficacy and safety assessments. In addition, during the clinical trial period, they were instructed to exercise regularly and control their diet without changing their daily life patterns.
• 1) Change in HbA1c at week 24 after administration of clinical trial drug compared to Visit 2 (randomization)
• 1) Change in HbA1c at each time point of weeks 6, 12, and 18 after administration of clinical trial drug compared to Visit 2 (randomization) • 2) Change in FPG at each time point of weeks 6, 12, 18, and 24 after administration of clinical trial drug compared to Visit 2 (randomization) • 3) Proportion of subjects achieving HbA1c<7% at each time point of weeks 6, 12, 18, and 24 after administration of clinical trial drug • 4) Proportion of subjects achieving HbA1c<6.5% at each time point of weeks 6, 12, 18, and 24 after administration of clinical trial drug • 5) Proportion of subjects achieving therapeutic response (HbA1c change (HbA1c at Visit 2—HbA1c at each evaluation time point)>0.5% or HbA1c<7% at each evaluation time point compared to Visit 2 (randomization)) at each time point of weeks 6, 12, 18, and 24 after administration of clinical trial drug • 6) Proportion of subjects achieving therapeutic response (HbA1c change (HbA1c at Visit 2—HbA1c at each evaluation time point)>0.7% or HbA1c<7% at each evaluation time point compared to Visit 2 (randomization)) at each time point of weeks 6, 12, 18, and 24 after administration of clinical trial drug • 7) Proportion of subjects achieving therapeutic response (HbA1c change (HbA1c at Visit 2—HbA1c at each evaluation time point)>1% or HbA1c<7% at each evaluation time point compared to Visit 2 (randomization)) at each time point of weeks 6, 12, 18, and 24 after administration of clinical trial drug

[1] = modified per-protocol set 2, enavogliflozin 0.3 mg, dapagliflozin 10 mg
[2] = per-protocol set, enavogliflozin 0.3 mg vs dapagliflozin 10 mg
[3] = per-protocol set, enavogliflozin 0.3 mg, dapagliflozin 10 mg

Q: Which results are given for `OC[C@H]1O[C@@H](c2cc(Cc3ccc(C4CC4)cc3)c(Cl)c3c2CCO3)[C@H](O)[C@@H](O)[C@@H]1O` [Enavogliflozin, (2S,3R,4R,5S,6R)-2-(7-chloro-6 (4-cyclopropylbenzyl)-2,3-dihydrobenzofuran-4-yl)-6-(hydroxymethyl)tetrahydro-2H-pyran-3,4,5-triol]?
A: Change from baseline in diastolic blood pressure, Mean (modified per-protocol set 2): −5.07 mmHg; Change from baseline in diastolic blood pressure, Median (modified per-protocol set 2): −5.00 mmHg; Diastolic blood pressure, Mean (modified per-protocol set 2): 71.61 mmHg; Diastolic blood pressure, Median (modified per-protocol set 2): 72.00 mmHg; Change from baseline in systolic blood pressure, ANCOVA LS mean difference (modified per-protocol set 2, enavogliflozin 0.3 mg vs dapagliflozin 10 mg): −1.37 mmHg; Change from baseline in systolic blood pressure, ANCOVA LS mean [1]: −6.43 mmHg; Change from baseline in systolic blood pressure, Mean [1]: −7.10 mmHg; Change from baseline in systolic blood pressure, Median [1]: −8.00 mmHg; Systolic blood pressure, Mean [1]: 120.73 mmHg; Systolic blood pressure, Median [1]: 121.00 mmHg; Adiponectin, Mean (per-protocol set): 7.13 µg/mL; Adiponectin, Median (per-protocol set): 6.24 µg/mL; Change from baseline in HOMA-IR, ANCOVA LS mean (per-protocol set): −1.11; Change from baseline in HOMA-IR, LS mean difference (enavogliflozin − dapagliflozin) (per-protocol set): −0.06; Change from baseline in HOMA-IR, Mean (per-protocol set): −1.16; Change from baseline in HOMA-IR, Median (per-protocol set): −0.79; Change from baseline in HOMA-β, ANCOVA LS mean (per-protocol set): 7.78; Change from baseline in HOMA-β, LS mean difference (enavogliflozin − dapagliflozin) (per-protocol set): 2.55; Change from baseline in HOMA-β, Mean (per-protocol set): 6.71; Change from baseline in HOMA-β, Median (per-protocol set): 4.80; Change from baseline in UACR, ANCOVA LS mean (per-protocol set): -15.12 g/kg; Change from baseline in UACR, LS mean difference (enavogliflozin − dapagliflozin) (per-protocol set): -3.35 g/kg; Change from baseline in UACR, Mean (per-protocol set): -18.62 g/kg; Change from baseline in UACR, Median (per-protocol set): -1.05 g/kg; Change from baseline in UGCR, ANCOVA LS mean (per-protocol set): 58.21 mg/mg; Change from baseline in UGCR, LS mean difference (enavogliflozin − dapagliflozin) (per-protocol set): 13.37 mg/mg; Change from baseline in UGCR, Mean (per-protocol set): 57.00 mg/mg; Change from baseline in UGCR, Median (per-protocol set): 57.05 mg/mg; Change from baseline in adiponectin, ANCOVA LS mean (per-protocol set): 0.89 µg/mL; Change from baseline in adiponectin, LS mean difference (enavogliflozin − dapagliflozin) (per-protocol set): 0.19 µg/mL; Change from baseline in adiponectin, Mean (per-protocol set): 0.88 µg/mL; Change from baseline in adiponectin, Median (per-protocol set): 1.00 µg/mL; Change from baseline in leptin, ANCOVA LS mean (per-protocol set): -1.97 ng/mL; Change from baseline in leptin, LS mean difference (enavogliflozin − dapagliflozin) (per-protocol set): -0.28 ng/mL; Change from baseline in leptin, Mean (per-protocol set): -1.96 ng/mL; Change from baseline in leptin, Median (per-protocol set): -1.28 ng/mL; HOMA-IR (insulin resistance), Mean (per-protocol set): 1.76; HOMA-IR (insulin resistance), Median (per-protocol set): 1.46; HOMA-β (beta-cell function), Mean (per-protocol set): 49.46; HOMA-β (beta-cell function), Median (per-protocol set): 41.50; Leptin, Mean (per-protocol set): 8.56 ng/mL; Leptin, Median (per-protocol set): 5.74 ng/mL; UACR, Mean (per-protocol set): 29.37 g/kg; UACR, Median (per-protocol set): 11.20 g/kg; UGCR, Mean (per-protocol set): 57.71 mg/mg; UGCR, Median (per-protocol set): 57.43 mg/mg; Achieving HbA1c target of <6.5%, odds ratio (logistic regression model) [2]: 1.44; Achieving HbA1c target of <7%, odds ratio (logistic regression model) [2]: 1.20; Change from baseline in FPG, ANCOVA LS mean difference [2]: -2.75 mg/dL; Change from baseline in HbA1c, ANCOVA LS mean difference [2]: −0.04 % p; Change from baseline in body weight, ANCOVA LS mean difference [2]: -0.01 kg; Change from baseline in fasting C-peptide, ANCOVA LS mean difference [2]: -0.02 ng/mL; Therapeutic glycemic response 1, odds ratio (logistic regression model) [2]: 1.09; Therapeutic glycemic response 2, odds ratio (logistic regression model) [2]: 1.30; Therapeutic glycemic response 3, odds ratio (logistic regression model) [2]: 1.31; Body weight, Mean [3]: 66.54 kg; Change from baseline in FPG, ANCOVA LS mean [3]: -27.17 mg/dL; Change from baseline in FPG, Mean [3]: -27.47 mg/dL; Change from baseline in FPG, Median [3]: -25.00 mg/dL; Change from baseline in HbA1c, ANCOVA LS mean [3]: −0.87 % p; Change from baseline in HbA1c, Mean [3]: −0.89 % p; Change from baseline in HbA1c, Median [3]: −0.75 % p; Change from baseline in body weight, ANCOVA LS mean [3]: -2.72 kg; Change from baseline in body weight, Mean [3]: -2.65 kg; Change from baseline in body weight, Median [3]: -2.90 kg; Change from baseline in fasting C-peptide, ANCOVA LS mean [3]: -0.09 ng/mL; Change from baseline in fasting C-peptide, Mean [3]: -0.09 ng/mL; Change from baseline in fasting C-peptide, Median [3]: -0.10 ng/mL; FPG, Mean [3]: 112.29 mg/dL; FPG, Median [3]: 110.00 mg/dL; Fasting C-peptide, Mean [3]: 0.64 ng/mL; Fasting C-peptide, Median [3]: 0.63 ng/mL; HbA1c, Mean [3]: 6.90%
